# Measurements from EP2631232B1, “Halogen derivatives of benzo[b]furans useful as anti-neoplastic or anti-proliferative drugs” (Centrum Badan Molekularnych I Makromolekularnych Pan, priority 2012, dated 2013).
# Assays:
# [1] = test system: HUVEC cells (normal human endothelial cells); assay: MTT cytotoxicity test, normal HUVEC cells; format: cell-based; conditions: for toxicity to normal HUVEC cells (in words): 48 hours of incubation; for IC50: Homo sapiens, MTT, 48h incubation
# Protocol: (§1) A number of halogen derivatives of benzo[b]furans were tested for cytotoxic properties against four cell lines. The tests were conducted by means of MTT where yellow tetrazole salt was processed by the dehydrogenases in mitochondria of live cells into violet formazan, in cell lines mentioned below: • HeLa cells (uterine cervix cancer); • HL60 cells (human acute myelogenous leukaemia); • K562 cells (human chronic myelogenous leukaemia), and • HUVEC cells (normal human endothelial cells). • 1. HeLa, K562, HL 60, and HUVEC cells, 7 thousand cells per well (in 200 µl of the medium) were disseminated on 96-well plates. Cells were incubated overnight in the incubator (37°C, 5% CO2). • 2. Test compounds were dissolved in DMSO; 2µL solution amounts were added to the cells. Final concentrations of the culture: 1mM, 10µM, 100nM, 1nM. Control: DMSO-containing cells, final concentration of which amounted to 1% in the culture. • 3. Cytotoxicity test (MTT) of test compounds after 48h incubation. After 48h incubation of HeLa, K562, HL60, or HUVEC cells with test compounds, 25 µl of MTT per well added (input concentration = 5mg/ml) to the mixture. MTT, yellow tetrazole salt was reduced to violet formazan by mitochondrial dehydrogenases of live cells; the volume of formazan was measured spectrophotometrically. After 2h incubation of cells with MTT in the incubator (37°C; 5% CO2), cells were lysed in lysing buffer containing SDS and DMF (95 µl/well). The lysis was conducted overnight at 37°C and with 5% CO2. • 4. MTT results were taken from FLUOstar Omega reader (wavelengths: 570 and 650 nm). Absorbance measured at 570 nm was proportional to the number of live cells. The plates were analysed by reading out the absorbance values at 570 nm and 650 nm wavelengths. The values of IC50 (concentration of compound producing a 50% cell mortality) was taken from the diagram by means of interpolation for a 50% cell survival rate.
# [2] = test system: K562 cells (human chronic myelogenous leukaemia); assay: MTT cytotoxicity test, K562 cells; format: cell-based; conditions: for toxicity to K562 cells (in words): 48 hours of incubation; for IC50: Homo sapiens, MTT, 48h incubation
# Protocol: as §1
# caspase 3 and 7 = assay: Apo-ONE Homogeneous Caspase-3/7 Assay in K562 cells; format: cell-based, human
# Protocol: The above mentioned toxicity of compound 1a was tested for its origin, i.e. induction of necrosis or apoptosis in the K562 cells of chronic myelogenous leukaemia. Accordingly: • K562 cells in RPMI 1640 medium containing a 10% calf foetal serum and antibiotics, were disseminated on a 96-well plate, in the amount of 20 x 10^3 cells per well. Cells were cultured for 24 hours in the incubator (5% CO2; 37°C). • Compound 1a was dissolved in DMSO and added to the cell medium; final concentration in the cell culture was 25 μM (5 x IC50). Negative control was established by means of cells cultured in the presence of DMSO at the concentration of 1%. Positive control was established by means of cells cultured in the presence of 1 μM staurosporin, a strong apoptosis inductor. The cells were incubated with the compounds for 18 hours in the incubator (5% CO2; 37°C). • The test to determine the activity of […] […] Due to proteolytic activity of caspases, the pro-fluorescent substrate was transformed into a fluorescent product the amount of which could be determined by means of fluorescence intensity measurement. • Fluorescence intensity in each well was measured on the plate by means of FLUOStar Omega (BMG-Labtech, Germany) plate reader, at the exciting light wavelength of 485 nm and emission of 520 nm. Fluorescence intensity was proportional to the activity of caspase 3 and 7 in the sample.
# [3] = test system: HeLa cells (uterine cervix cancer); assay: MTT cytotoxicity test, HeLa cells; format: cell-based; conditions: for toxicity to HeLa cells (in words): 48 hours of incubation; for IC50: Homo sapiens, MTT, 48h incubation
# Protocol: as §1
# [4] = test system: HL60 cells (human acute myelogenous leukaemia); assay: MTT cytotoxicity test, HL60 cells; format: cell-based; conditions: for toxicity to HL60 cells (in words): 48 hours of incubation; for IC50: Homo sapiens, HL-60, MTT, 48h incubation
# Protocol: as §1
# [5] = test system: K562 cells (human chronic myelogenous leukaemia); conditions: comparison value for cis-platinum; cited from earlier work
SMILES,toxicity to normal HUVEC cells (in words) [1],IC50 [1],toxicity to K562 cells (in words) [2],IC50 [2],"activity of caspase 3 and 7 (caspase 3 and 7; 25 µM, 18 hours incubation, compared with reference cells (K562 and K562+DMSO), Fig. 1)","activity of caspases 3 and 7 (caspase 3 and 7; 1a concentration = 25 µM, incubation time = 24h)",toxicity to HeLa cells (in words) [3],IC50 [3],toxicity to HL60 cells (in words) [4],IC50 [4],IC50 value against K562 cells [5]
"COc1cc2c(CBr)c(C(C)=O)oc2c(C(C)=O)c1OC [Compound 1a, 1,1'-[3-(bromomethyl)-5,6-dimethoxy-1-benzofuran-2,7-diyl] diethanon]",not toxic,> 1000 µM,Strong toxicity,5 µM,higher,increased,toxic to neither,> 1000 µM,Strong toxicity,0.1 µM,–
COC(=O)c1c(C)oc2cc(C(=O)C(Br)Br)c(O)c(Br)c12 [Compound 1b],not toxic,> 1000 µM,toxic,1 µM,–,–,toxic,9 µM,toxic,4 µM,–
COC(=O)c1c(C)oc2cc(C(=O)C(Br)Br)c(OC)cc12 [Compound 1c],not toxic,> 1000 µM,toxic,1 µM,–,–,toxic,1 µM,toxic,4 µM,–
COC(=O)c1c(C)oc2cc(C(=O)C(Cl)Cl)c(O)c(Cl)c12 [Compound 1e],not toxic,> 1000 µM,not toxic,> 1000 µM,–,–,specifically toxic,10 µM,specifically toxic,3 µM,–
N.N.[Cl][Pt][Cl] [cis-platinum],–,–,–,–,–,–,–,–,–,–,several to several dozens
